Experimental findings from patent US20230263825A1, “ANTI-CANCER ACTIVITY OF PERBORATE SALTS” (priority 2020, published 2023) are described below.

Experiment [1] has as its system DMS114 cells (small cell lung cancer cells). As to the kind of experiment: Flow cytometry (Annexin V / PI) cell death pathways. The class given is cell-based. As to conditions: 15 μg/mL, 3 days. The procedure: (§1) Cell death pathways were analysed using the Annexin V method, performed by flow cytometry. In this method, Annexin V dye is used to detect cells entering the apoptosis death pathway (Sigma-Aldrich Cat No: 11858777001), while PI (Propidium Iodide) dye is used to detect cells entering the necrosis death pathway (Sigma-Aldrich Cat No: 11858777001).
(§2) Cells were grown in complete RPMI media (completed with 10% Fetal Bovine Serum and 1% penicillin streptomycin amphotericin) in a humidified CO2 incubator (80% humidity, 5% CO2 and 37° C.). At 70-80% confluency, cells were harvested using Trypsin/EDTA solution. After 3 days of sodium perborate tetrahydrate treatment (15 μg/mL), the cells were harvested and divided into 4 equal tubes. […] Only PI dye was placed in the second tube and necrotic cells were detected. Annexin V dye was placed in the third tube and apoptotic cells were detected. In the fourth tube, two dyes were put together. […] On the other hand, over 90% of MRC5 cells were alive in the control as well as following treatment with sodium perborate tetrahydrate, with only a small percentage (<5%) of treated cells in necrosis.
For orientation: Flow cytometry measures light scatter and fluorescence of single cells or particles in a stream.

The subject of experiment [2] is MRC5 cells (healthy lung cells). The experiment is described as above. The class given is cell-based. The settings on record: 15 μg/mL, 3 days. The procedure: as §1, §2

Regarding `O.O.O.O.[Na+].[O-]B1OO1` [sodium perborate tetrahydrate], in experiment [1], the cells alive entry is given as “less than 5%”, the “cells in early apoptosis” value is on record as about 80% and the “cells in late apoptosis” value is about 10%. For the same compound, the “damage to healthy cells (MRC5) relative to cancer cells (DMS114), times less” value in experiment [2] was “approximately 5 times”. For the same compound, in experiment [2] (MRC5), the cells alive result is on record as “over 90%” and the “treated cells in necrosis” value was “less than 5%”.
